Assay results as given in patent US20260091086A1, “POLYPEPTIDE COMBINATIONS AND USES THEREOF” (MEDIMMUNE LIMITED, priority 2024, published 2026).
Values belong to the molecule of their own block, whether it stands above or below them. Numbered stars: 1 amine (or outer) side, 2 acyl side, 3 side chain; on linkers, the order of the positions; unused ones are H or OH. Bridge positions count the residues as written; N and C are the ends. Square brackets hold non-standard residues; d marks the D form. Side chains are listed from the residue outwards. Ends that are not written are not given here. * marks the point of attachment. C18 diacid = O=C(O)CCCCCCCCCCCCCCCCC(=O)*; γGlu = O=C(O)[C@H](CCC(=O)[*:2])N[*:1]; αMeF = C[C@](N)(Cc1ccccc1)C(=O)O

How the values were obtained:
DIO Sprague-Dawley rats [1] = test: Example 5: 19-day Q2D body weight study with Fc-linked agonists; assay type: in vivo, rat; conditions: mono-treatment 0.1 mg/kg Q2D SC, 19 days
Procedure: Study Design: Male DIO Sprague-Dawley rats were fed a high-fat diet (32.5% kcal fat, D12266B; Research Diets) for approximately 6 weeks prior to study start. Rats were dosed every other day (Q2D) SC for 19 days with Vehicle, GLP1-Fc (0.1 or 1 mg/kg), Fc-LAA (0.1 or 2 mg/kg) or a combination of GLP1-Fc and Fc-LAA (0.1+0.1 mg/kg, 0.1+2 mg/kg, 1+0.1 mg/kg or 1+2 mg/kg respectively) with an n=7/group. Body weight was monitored daily through-out study and shown below as % change of vehicle treatment. Data reported as mean±standard error of the mean (SEM). In this experiment, the LAA was an Fc-Amylin, and the GLP-1 agonist was dulaglutide (a GLP-1 agonist covalently linked to an Fc fragment of IgG4).

[2] = system: diet-induced obese (DIO) Sprague-Dawley rats; test: Example 2: 28-day combination study in DIO rats (body weight, EchoMRI body composition); assay type: in vivo, rat; conditions: LAA 10 nmol/kg, GLP-1/GCG 5.4 nmol/kg or both
Procedure: Study Design: Male diet-induced obese (DIO) Sprague-Dawley rats were fed a high fat diet (45% fat, D12451; Research Diets) for 34 weeks prior to study start. […] Research Diets). […] Average body weight for all DIO rats at start of study was 722.4+10.1 grams. Body composition was measured by EchoMRI on day-7 and day 26. In this experiment, the LAA was that of SEQ ID NO: 11, and the GLP-1/GCG dual-agonist was cotadutide. Data reported as mean±standard error of the mean (SEM); data analysis performed using GraphPad Prism-statistical analysis performed using One-way ANOVA with Tukey ad hoc analysis.

DIO Sprague-Dawley rats [3] = test: Example 3: 28-day body weight study in DIO rats; assay type: in vivo, rat; conditions: day 28
Procedure: Study Design: Male DIO Sprague-Dawley rats were fed a high-fat diet (32.5% kcal fat, D12266B; Research Diets) for approximately 8 weeks prior to study start. Rats were dosed once daily SC for 28 days with Vehicle, GLP-1/GCG (1.5 nmol/kg or 5 nmol/kg), LAA (7.5 nmol/kg) or a combination of GLP-1/GCG and LAA (1.5 and 7.5 nmol/kg, or 5 nmol/kg and 7.5 nmol/kg, respectively) with an n=6/group. Body weight was monitored daily throughout the study. Data reported as mean±standard error of the mean (SEM); data analysis performed using GraphPad Prism-statistical analysis performed using One-way ANOVA with Tukey ad hoc analysis (*p<0.05, **p<0.01, ***0<0.001, ****p<0.0001). In this experiment, the LAA was that of SEQ ID NO: 11, and the GLP-1/GCG dual-agonist was cotadutide.

[4] = system: DIO male pair-housed rats; test: Example 3 additional study: 28-day body weight, food intake and organ weights in DIO rats; assay type: in vivo, rat
Procedure: (§1) Study design: DIO male pair-housed rats fed a 32.5% high-fat diet (D12266B) for 7 weeks reached a mean body weight (BW) of ˜595 g. Rats were dosed SC daily for 28 days with vehicle (Vh), GLP-1/GCG dual agonist (1.5 or 5 nmol/kg), LAA (2.5 or 7.5 nmol/kg), or combination (1.5+2.5 nmol/kg, 1.5+7.5 nmol/kg, 5+2.5 nmol/kg, or 5+7.5 nmol/kg, respectively). Food intake (FI) and BW were measured daily. In chow fed lean rats, gastric emptying (GE) was measured via X-ray fluoroscopic quantification following SC injections of Vh, GLP-1/GCG dual agonist at 1, 3, or 10 nmol/kg or LAA at 1, 3, or 10 nmol/kg. In a subsequent acute GE study, lean rats received a single dose of Vh, GLP-1/GCG dual agonist (2 nmol/kg), LAA (2 nmol/kg) or GLP-1/GCG dual agonist+LAA combination (2+2 nmol/kg). In this experiment, the LAA was that of SEQ ID NO: 11, and the GLP-1/GCG dual-agonist was cotadutide.

chow fed lean rats = test: Example 3: acute gastric emptying by X-ray fluoroscopic quantification; assay type: in vivo, rat; conditions: acute SC
Procedure: as §1

[5] = target: T1, rat amylin receptor (calcitonin receptor plus RAMP3) (rat, UniProt P32214 25-516; Q9JJ73 23-147); test: cell-based or functional assay
T1 sequence (looked up) 1: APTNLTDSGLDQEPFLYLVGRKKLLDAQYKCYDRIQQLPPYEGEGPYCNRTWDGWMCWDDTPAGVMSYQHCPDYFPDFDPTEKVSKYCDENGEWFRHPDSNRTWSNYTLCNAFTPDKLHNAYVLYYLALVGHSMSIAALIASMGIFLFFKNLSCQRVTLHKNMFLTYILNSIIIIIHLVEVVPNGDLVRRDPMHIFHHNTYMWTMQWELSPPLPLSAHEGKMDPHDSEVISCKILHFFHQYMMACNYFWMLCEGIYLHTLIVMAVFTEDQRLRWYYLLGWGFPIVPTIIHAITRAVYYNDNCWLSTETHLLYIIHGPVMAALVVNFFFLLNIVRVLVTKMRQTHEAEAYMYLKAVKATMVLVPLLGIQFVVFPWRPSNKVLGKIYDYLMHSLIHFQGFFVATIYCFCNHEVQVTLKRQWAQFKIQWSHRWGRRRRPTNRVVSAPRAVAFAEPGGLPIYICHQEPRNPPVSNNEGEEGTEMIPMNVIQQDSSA
T1 sequence (looked up) 2: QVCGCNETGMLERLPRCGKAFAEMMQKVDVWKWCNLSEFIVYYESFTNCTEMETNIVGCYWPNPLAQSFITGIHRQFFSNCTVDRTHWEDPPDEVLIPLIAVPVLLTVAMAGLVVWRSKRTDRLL

[6] = target: human amylin receptor 3 (hAMY3R; complex of hCTR and hRAMP3) (human, UniProt P30825 2-629; O60896 24-148, limits assumed); test: cell-based or functional assay
Sequence of human amylin receptor 3 (hAMY3R; complex of hCTR and hRAMP3) (P30825 2-629 limits assumed, chain 1 of 2): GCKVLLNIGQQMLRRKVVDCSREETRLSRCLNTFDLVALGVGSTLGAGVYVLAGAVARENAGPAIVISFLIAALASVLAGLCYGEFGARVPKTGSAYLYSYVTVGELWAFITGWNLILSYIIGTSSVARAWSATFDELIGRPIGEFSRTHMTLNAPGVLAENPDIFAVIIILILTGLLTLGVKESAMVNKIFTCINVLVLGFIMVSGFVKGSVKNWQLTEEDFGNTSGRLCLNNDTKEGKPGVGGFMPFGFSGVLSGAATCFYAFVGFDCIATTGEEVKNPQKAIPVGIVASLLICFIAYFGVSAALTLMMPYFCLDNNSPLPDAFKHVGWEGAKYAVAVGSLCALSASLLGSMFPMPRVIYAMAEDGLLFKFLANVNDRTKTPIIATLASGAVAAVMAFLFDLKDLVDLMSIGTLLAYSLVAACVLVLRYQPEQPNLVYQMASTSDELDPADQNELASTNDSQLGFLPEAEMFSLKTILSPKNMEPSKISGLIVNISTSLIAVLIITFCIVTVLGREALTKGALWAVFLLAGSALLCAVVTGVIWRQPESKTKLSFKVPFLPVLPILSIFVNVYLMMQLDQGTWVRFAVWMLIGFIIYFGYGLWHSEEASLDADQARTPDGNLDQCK
Sequence of human amylin receptor 3 (hAMY3R; complex of hCTR and hRAMP3) (O60896 24-148 limits assumed, chain 2 of 2): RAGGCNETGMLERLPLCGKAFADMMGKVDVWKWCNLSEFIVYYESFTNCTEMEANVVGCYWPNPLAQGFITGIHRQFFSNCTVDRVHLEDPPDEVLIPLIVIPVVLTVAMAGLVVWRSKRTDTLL

Molecule: dulaglutide [GLP1-Fc]
body weight change normalized to vehicle (DIO Sprague-Dawley rats [1]): 1.0%

Molecule: HSQGTFTSD-X10-SEYLDSERARDFVAWLEAGG-acid, wherein X10=Lys[ε-γE-Palmitoyl] [GLP-1/GCG]
body weight loss vs Vehicle ([2]; SC QD, FIG. 1A): lost significantly more body weight than Vehicle treated rats | fat mass change (EchoMRI) ([2]; day 26): lost both fat and lean mass compared to Vehicle treated animals | lean mass change (EchoMRI) ([2]; day 26): lost both fat and lean mass compared to Vehicle treated animals | mean change in body weight normalized to Vehicle (DIO Sprague-Dawley rats [3]; GLP-1/GCG 1.5 nmol/kg SC QD): −8.4% | mean change in body weight normalized to Vehicle (DIO Sprague-Dawley rats [3]; GLP-1/GCG 5 nmol/kg SC QD): −25% | Vh corrected BW change (BW gain) ([4]; 28 days SC daily, GLP-1/GCG dual agonist 1.5 nmol/kg): −8.4% | Vh corrected BW change (BW gain) ([4]; 28 days SC daily, GLP-1/GCG dual agonist 5 nmol/kg): −25.0% | Cumulative FI normalized to Vh ([4]; 28 days SC daily, monotherapy and combination groups): decreased in a dose-dependent manner | Liver lipids (%) vs Vh ([4]; all GLP-1/GCG dual agonist 5 nmol/kg treated groups): lower than Vh | Liver weights vs. Vh ([4]; all combination groups, GLP-1/GCG dual agonist monotherapy at 5 nmol/kg): Liver weights decreased | GE AUC as % of Vehicle (chow fed lean rats; 1 nmol/kg): 85% | GE AUC as % of Vehicle (chow fed lean rats; 3 nmol/kg): 49% | GE AUC as % of Vehicle (chow fed lean rats; 10 nmol/kg): 24%

Relative potency ratio (AMY3R/CTR), Rat; cAMP accumulation assay, 0.1% BSA [5]: 1.6 ratio | Relative potency ratio (AMY3R/CTR), Human; cAMP accumulation assay, 0.1% BSA [6]: 0.9 ratio
Molecule: K([γGlu-γGlu-C18 diacid])CNTATCATQRLANFLRHSSNN[αMeF]GPILPPTEVGSNTY-NH2 (disulfide 2-7) [LAA/SARA 1 (lipidated pramlintide analogue of SEQ ID NO: 11)]

Relative potency ratio (AMY3R/CTR), Rat; cAMP accumulation assay, 0.1% BSA [5]: 1 ratio | Relative potency ratio (AMY3R/CTR), Human; cAMP accumulation assay, 0.1% BSA [6]: 1 ratio
Molecule: KCNTATCATQRLANFLVHSSNNFGPILPPTNVGSNTY-NH2 (disulfide 2-7) [Pramlintide]
